A melting point compilation (Tetko et al.)

Compound	melting point [°C]
Cc1ccc(-c2cccc(C)c2)cc1	14.5
Nc1ccc2c(c1)OCCCO2	81 to 82
CCOC(=O)C1=C(C)NC(C)=C(C(=O)OCC)C1c1ccc2c(c1)OCO2	135
CC(C)=CC(=O)C=C(C)C	28
CC(=O)c1nn2c(C(F)(F)F)nnc2s1	200
O=C1CCCN1c1ccc(F)cc1	55 to 58
Cc1cc(Cl)c(C)cc1N	94 to 96
CCOC(=O)c1sc(-c2ccc(C)cc2)nc1O	128 to 130
NC[C@H]1CC[C@H](C(=O)O)CC1	300
N#Cc1ccc(Oc2ccccc2)cc1	45 to 48
Cc1cc(N)ccc1[N+](=O)[O-]	135
NC(=O)c1ccc2c(c1)OCO2	167 to 169
CN1CCN(C)c2cc(C#N)ccc21	80 to 82
OCc1cccc2c1OCCCO2	47 to 48
CC(C)(C)OC(=O)N=NC(=O)OC(C)(C)C	90 to 92
Cc1c(Br)c(Br)c(O)c(Br)c1Br	195 to 200
N#Cc1ccnc(F)c1	32
O=C(Cc1cc(CC(=O)Nc2ccccc2)c([N+](=O)[O-])cc1[N+](=O)[O-])Nc1ccccc1	267
CN(C)c1ccccc1N(C)C	8.9
C=CCn1c(S)nnc1-c1ccc2ncccc2c1	211 to 214
CCOC(=O)c1cc(-c2ccccc2)n(-c2ccccc2)c1C	97
O=C1OC(c2ccccc2)c2ccccc21 (stereo not given)	117
Nc1ncc(Cl)cn1	235
CCS(=O)(=O)O	-17
CC1CC1C (stereo not given)	-141
CCc1nnc(-c2ccccn2)nc1CC	70

Compound	melting point [°C]
NC(=S)c1ccc(-c2ccccn2)s1	198 to 200
CC(C(=O)Nc1ccc(F)c(Cl)c1)(C(F)(F)F)C(F)(F)F	72
CCOC(=O)c1nn(-c2ccc(C)cc2)c(C)c1C(=O)C1=NOC2C(=O)N(c3cc(Cl)ccc3Cl)C(=O)C12 (stereo not given)	225
c1cncc(C2CCCCN2)c1 (stereo not given)	9
COCCOC(=O)c1ccccc1C(=O)OCCOC	-45
C1COCCOCCOCCO1	16
c1ccc2nsnc2c1	43
CC(C)(C)c1ccc2c(c1)C(=O)c1ccccc1C2=O	99
Cc1ccc(CO)c(C)c1	22
Cc1ccc2c(c1)OC(C)(c1ccc(C)cc1OC(=O)c1ccccc1)CC2(C)C (stereo not given)	149
COC(=O)c1coc(CCl)n1	74 to 76
COC(=O)c1cccc2c1-c1ccccc1C2=O	135 to 136
COc1coc(CSP(=O)(OC)OC)cc1=O	96
O=C(CCCN1CC=C(n2c(=O)[nH]c3ccccc32)CC1)c1ccc(F)cc1	146
CCN(CC)CCNc1ccc(CO)c2sc3ccccc3c(=O)c12	101
Cc1cc(C(=O)Nc2ccccc2)no1	136 to 139
CN[C@H](CC(=O)O)C(=O)O	187 to 192
Oc1c(O)c(Br)c(Br)c(Br)c1Br	191
CCOP(=S)(OCC)Oc1ccc2c3c(c(=O)oc2c1)CCCC3	88.2
c1ccc(-c2cccc3cccc(-c4ccccc4)c23)cc1	147
CC(=O)OC1C2=C(C(=O)C(O)=C(C(C)C)C2=O)C2(C)CCCC(C)(C)C2C1O (stereo not given)	216
COC(=O)c1cnc(SCC(=O)c2ccc(Cl)cc2)n1C	126 to 127
CC(=O)C1C(=O)c2ccccc2CC1c1ccccc1 (stereo not given)	67
O=c1[nH]c2ccccc2nc(C(F)(F)F)c1=NNc1cc(-c2ccccc2)n[nH]1	159
COc1ccccc1NC(=O)CC(C)=O	86
COc1ccc(F)c(C#N)c1	83

Compound	melting point [°C]
CC(C)CC(O)C(=O)O (racemic)	75 to 78
CCN1CC2(COC)C(O)CC(OC)C34C5CC6(O)C(O)C5C(O)(C(O)C6OC)C(C(OC)C23)C14 (stereo not given)	132
CC1(C)C(=O)N(Br)C(=O)N1Br	187 to 191
Clc1ccc(Cl)c(-c2cc(Cl)c(Cl)c(Cl)c2)c1	105
Cc1cc(-c2ccccc2)n(N)c(=O)c1C#N	189
CC=CC(=O)c1ccccc1	20.5
CC(=O)c1ccc(O)c(C(N)=O)c1	221 to 226
CCOC(=O)C(C#N)=NNc1ccc(C(=O)O)cc1	219
COC(=O)c1cc(C)n(CO)n1	89
Nc1cc(F)c(Cl)cc1N	110 to 112
Oc1ccc(Oc2ccc(O)cc2)cc1	163 to 168
CC(=O)Nc1ccc(OC(F)(F)F)cc1	115 to 117
CCOC(=O)C(=O)CC(=O)c1cccs1	38 to 40
CCCCCCCCCC(=O)c1ccccc1	34 to 38
O=C1c2ccccc2C(=O)c2c(NCCO)ccc(NCCO)c21	248
NC(=S)Nc1cccc(F)c1	113 to 117
O=C1C=CC(=O)[C@@H]2CC3=C(CC4=C(C3)C[C@H]3C(=O)C=CC(=O)[C@H]3C4)C[C@H]12	335 to 340
O=C(O)c1cnc(NCc2ccccc2)s1	163 to 164
OCc1cc(C(F)(F)F)ccc1Cl	59
COC(=O)C(CCSC)NC(=O)c1ccc(C(F)(F)F)cc1 (stereo not given)	94 to 96
COc1cccc(CO)c1OC	48 to 51
COC(=O)c1ccc(I)c([N+](=O)[O-])c1	102
ClC1=C(Cl)C2(Cl)C3C(c4ccccc4C4C3C3(Cl)C(Cl)=C(Cl)C4(Cl)C3(Cl)Cl)C1(Cl)C2(Cl)Cl (stereo not given)	217 to 220
COc1ccc(OC)c(C=CC(=O)O)c1	147 to 150
COC(=O)c1ccc(O)c(N)c1	143
N#Cc1c(C(F)(F)F)cc(-c2cccs2)[nH]c1=O	293 to 295

Compound	melting point [°C]
Cc1nc(-c2ccc(Br)cc2)cs1	130 to 135
O=C(O)/C(=C/c1cccc2ccccc12)c1ccccc1	160 to 161
OCc1cc(Cl)ccc1O	90 to 91
O=Cc1ccc(-c2ccc(Br)cc2)o1	150 to 155
O=c1nc(SCc2ccc(Cl)cc2)c2c([nH]1)CCCC2	287 to 289
CC1=C(C(=O)OCc2ccccc2)C(c2ccccc2)N(C)C(=O)N1C (stereo not given)	86
CC(C)(C#N)Nc1nc(Cl)nc(NC2CC2)n1	170
Cc1ccc(F)c(CO)c1Cl	69
Cc1cc(C)c2c(N)n[nH]c2n1	280
CNC(c1ccccc1)C(NC)c1ccccc1 (stereo not given)	48 to 51
CC(C)NCC(O)COc1ccc(COCCOC(C)C)cc1 (stereo not given)	100
O=C(/C=C/c1ccc(-c2ccc(Br)cc2)o1)c1ccccc1	141 to 142
O=C1N[C@H]2[C@H](CS[C@H]2CCCCC(=O)ON2C(=O)CCC2=O)N1	212
O=CC=CC=Cc1ccccc1	42.5
BrC/C=C/CBr	53.4
COC(=O)c1ccc(CN2CCN(C(=O)OC(C)(C)C)CC2)cc1	78 to 80
CCOC(CN)OCC	-78
O=[N+]([O-])c1ccc(N/N=C2\Cc3c2ccc2ccccc32)c([N+](=O)[O-])c1	273 to 276
Clc1ccc(OCCCI)cc1	31 to 33
CC(C)CCCC(C)C1CCC2C3CCC4=CC(=O)CCC4(C)C3CCC12C (stereo not given)	79 to 82
CCCC1C2=C(OC(=O)C1(C)C)c1ccc(OC)cc1CC2 (stereo not given)	129
COC(=O)CS(C)(=O)=O	62 to 63
Clc1ccc2c(c1)Oc1cc(Cl)ccc1O2	151
O=C(O)c1cccc(S(=O)(=O)Cl)c1	135
CC(C)(C)OC(=O)N1c2ccccc2CC1CO (stereo not given)	84 to 89
COc1ccc(-c2ccc(C=O)s2)cc1	118 to 119

Compound	melting point [°C]
O=C1CCC2OCC(c3ccccc3)N12 (stereo not given)	76 to 80
O=C1OC(=O)C2CC(c3ccccc3)CCC12 (stereo not given)	105 to 106
c1ccc(-c2noc(-c3ccccc3)n2)cc1	109
O=C(CI)c1ccccc1	34.4
CC1(C)c2ccccc2N(Cc2ccccc2)C12C=Cc1cc([N+](=O)[O-])ccc1O2 (stereo not given)	158 to 160
CC(C)COc1ccc2ccccc2c1	31
CC(=O)N(CC(C)C(=O)O)c1c(I)cc(I)c(N)c1I (stereo not given)	224
CC1=C(C(=O)OCc2ccccc2)C(c2ccc(O)c(O)c2)NC(=O)N1 (stereo not given)	214 to 216
O=Cc1cccc2c1CCOC2=O	140
O=S(=O)(Nc1cc(F)c(F)cc1F)C(F)(F)F	58.5
CC(F)(F)CCl	-56.2
NNC(=O)CNc1nc(N)n[nH]1	225
Brc1ccc(-c2cccs2)cc1	95 to 96
Cc1ccc(C)c(C(O)C(=O)O)c1 (stereo not given)	115 to 118
CC(=O)c1ccc2c(c1)OCO2	86 to 89
Cc1c(C)c(C)c2c(c1C)CCC2=O	154
NC(Cc1c[nH]c2ccc(O)cc12)C(=O)O (racemic)	299
Cc1ccc(F)c(O)c1	32
O=C1NC(=O)C2(CCc3ccccc3C2)N1 (stereo not given)	268
Cc1nc(-c2ccc(S(=O)(=O)N(C)C)cc2)c(-c2ccc(S(=O)(=O)N(C)C)cc2)o1	208 to 211
COCc1cc(=O)oc2cc(N)ccc12	184
Cc1cc(C)n2nc(N)c(Cc3ccc(F)cc3)c2n1	208 to 210
Cc1cccc(C(=O)N(NC(=O)c2ccccc2)C(C)(C)C)c1C	204
Cc1sc2ccccc2c1CC1=NCCN1	156
FC(F)(F)c1nc(C(F)(F)F)nc(C(F)(F)F)n1	-24.8
COc1cccc2cc(C(=O)O)oc12	219
